Patent US20250109156A1, “INDOLE-CONTAINING MACROCYCLIC COMPOUNDS AND USES THEREOF” (JIANGSU AOSAIKANG PHARMACEUTICAL CO., LTD., priority 2022, published 2025)

Legend:
[1] = system: OVCAR3 cells; experiment: In vitro OVCAR3 cell activity assay (CellTiter-Glo proliferation); type: cell-based; conditions: Homo sapiens, OVCAR-3, 72 h, 3 days incubation
Protocol: Experimental Example 5: In Vitro OVCAR3 Cell Activity Assay
1640 culture medium, fetal bovine serum, penicillin/streptomycin antibiotics were purchased from WISENT. CellTiter-Glo (cell viability chemiluminescence detection reagent) reagent was purchased from Promega. OVCAR3 cell line was purchased from Nanjing Cobioer Biosciences Co. Ltd. Nivo multimode microplate reader (PerkinElmer).
The OVCAR3 cells were seeded in a white 96-well plate, with 80 μL of cell suspension per well, containing 2000 OVCAR3 cells each. The cell plate was incubated overnight in a CO2 incubator.
The compounds to be tested were 5-fold diluted with a multi-channel pipette to the 8th concentration, i.e., diluted from 200 μM to 0.512 nM, and the experiment was set up in duplicate wells. 78 μL of culture medium was added to an intermediate plate, and then 2 μL of gradient diluted compound per well was transferred to the intermediate plate according to the corresponding position. After mixing well, the compound was transferred to the cell plate at 20 μL per well. The concentration of the compound transferred to the cell plate ranged from 1 μM to 0.0026 nM. The cell plate was incubated in a CO2 incubator for 3 days. Another cell plate was prepared to measure the signal on the day of drug addition as the maximum value (denoted as Max in the equation below) for data analysis. 25 μL of cell viability chemiluminescence detection reagent was added to each well of this cell plate, and incubated at room temperature for 10 minutes to stabilize the luminescent signal. A multimode microplate reader was used for reading. […]
Using the equation (Sample−Min)/(Max−Min)*100% to convert the raw data into inhibition rate, the IC50 value may be obtained by curve fitting with four parameters (obtained by “log (inhibitor) vs. response—Variable slope” mode in GraphPad Prism). Table 1 provides the inhibitory activity of the compounds of the present disclosure on the proliferation of OVCAR3 cells.

[2] = biological target: CDK2/CyclinE1 (Homo sapiens (Human), UniProt P24941); experiment: In vitro CDK2/CyclinE1 enzyme activity assay (TR-FRET); type: biochemical; conditions: Ulight-4E-BP1 peptide, 25° C. 120 minutes
Protocol: Experimental Example 2: In Vitro CDK2/[…] Enzyme Activity Assay
CDK2/CyclinE1 was purchased from SignalChem. Ulight-4E-BP1 peptide, Eu-anti-phospho-tyrosine antibody, and 1× detection buffer were purchased from PerkinElmer. High-purity ATP was purchased from Promega. EDTA was purchased from Sigma. Nivo multimode microplate reader (PerkinElmer).
Preparation of kinase buffer: the kinase buffer containing 50 mM HEPES, 1 mM EDTA, 10 mM MgCl2, 0.01% Brij-35, pH 7.4.
2.38 g of HEPES, 58 mg of EDTA, 406 mg of MgCl2, and 20 mg of Brij-35 were added to 200 mL of buffer, and the pH was adjusted to 7.4.
100 μL of 1 M EDTA stock solution was mixed with 0.625 μL of 1× detection buffer and 1725 μL of distilled water to prepare the stop solution.
Enzyme, Ulight-4E-BP1 peptide, ATP, and inhibitors were diluted with the kinase buffer.
The Eu-anti-phospho-tyrosine antibody was diluted to a concentration of 8 nM/L using detection buffer.
The compounds to be tested were 5-fold diluted with a multi-channel pipette to the 8th concentration, i.e., from 40 μM to 0.512 nM, with a final DMSO concentration of 4%. The experiment was set up in duplicate wells. 2.5 μL of each concentration gradient of the inhibitor was added to the microplate, followed by 5 μL of CDK2/CyclinE1 enzyme (10 ng), and 2.5 μL of a mixture of substrate and ATP (4 mM ATP, 100 nM Ulight-4E-BP1 peptide). At this point, the final concentration gradient of the compound was 10 μM diluted to 0.128 nM. The reaction system was reacted at 25° C. for 120 minutes. After the reaction, 5 μL of stop solution was added to each well, and the reaction was continued at 25° C. for 5 minutes. After stopping the reaction, 5 μL of Eu-anti-phospho-tyrosine antibody dilution was added to each well, and the mixture was reacted at 25° C. for 60 minutes. Data were then collected using the PerkinElmer Nivo multimode microplate reader in TR-FRET mode (excitation wavelength: 320 nm, emission wavelength: 665 nm).
Using the equation (Sample−Min)/(Max−Min)*100% to convert the raw data into inhibition rate, the IC50 value may be obtained by curve fitting with four parameters (obtained by “log (inhibitor) vs. response—Variable slope” mode in GraphPad Prism). Table 1 provides the CDK2/CyclinE1 enzymatic inhibitory activity of the compounds of the present disclosure.

[3] = system: HCC70 breast cancer xenograft (CDX); experiment: In vivo efficacy study, HCC70 breast cancer CDX model; design: species or system BALB/c nude mice; conditions: for Animal tolerance: BALB/c nude mice, HCC70 CDX
Protocol: Experimental Example 6: In Vivo Efficacy Study
In vivo efficacy experiments were conducted on BALB/c nude mice subcutaneously implanted with human tumor cell line-based xenograft (CDX) derived from HCC70 breast cancer patients.
BALB/c nude mice, female, 6 to 8 weeks old, weighing approximately 19 to 23 g, were maintained in a special pathogen-free environment in individual ventilated cages (6 mice per cage). All cages, bedding, and water were disinfected before use. All animals had free access to a standard certified commercial laboratory diet. A total of 36 mice, purchased from the Laboratory Animal Department of the Shanghai Institute of Planned Parenthood Research (formerly Shanghai SIPPR-BK), were used for the study. Each mouse was injected with 10×10^6 HCC70 cells on the right side of the neck, with an injection volume of 0.2 mL, and the cell suspension was in a 1:1 ratio of PBS and Matrigel. When the average tumor volume reached approximately 179 mm^3, random grouping was performed, and dosing was initiated.
Tumor volume was measured twice a week with a two-dimensional caliper, and the volume was measured in mm^3 and calculated by the following equation: V=0.5 a×b^2, where a and b are the long and short diameters of the tumor, respectively.

Compound | IC50 [1] [nM] | IC50 [2] [nM] | Animal tolerance ([3]; dose 3 mg/kg) | Tumor volume Day 0 ([3]; dose 3 mg/kg) [mm^3] | Tumor volume Day 7 ([3]; dose 3 mg/kg) [mm^3] | Tumor volume Day 14 ([3]; dose 3 mg/kg) [mm^3] | Tumor volume Day 21 ([3]; dose 3 mg/kg) [mm^3] | Animal tolerance ([3]; dose 1.5 mg/kg) | Tumor volume Day 0 ([3]; dose 1.5 mg/kg) [mm^3] | Tumor volume Day 7 ([3]; dose 1.5 mg/kg) [mm^3] | Tumor volume Day 14 ([3]; dose 1.5 mg/kg) [mm^3] | Tumor volume Day 21 ([3]; dose 1.5 mg/kg) [mm^3]
CN1CCCCN2CCCC[C@@H](C2)Nc2ncc(C(F)(F)F)c(n2)-c2c[nH]c3c(P(C)(C)=O)c(ccc23)C1=O [Compound 3] | 0.6 | > 1000 |  |  |  |  |  |  |  |  |  | 
CP(C)(=O)c1c2ccc3c(c[nH]c13)-c1nc(ncc1C(F)(F)F)N[C@H]1CCCN(CCCCCCO2)C1 [Compound 4] | 0.2 | > 1000 |  |  |  |  |  |  |  |  |  | 
CP(C)(=O)c1c2ccc3c(c[nH]c13)-c1nc(ncc1C(F)(F)F)N[C@H]1CCCN(CCCCNC2=O)C1 [Compound 5] | 0.2 | 738 | Good | 179 | 260 | 305 | 230 |  |  |  |  | 
CP(C)(=O)c1c2ccc3c(c[nH]c13)-c1nc(ncc1C(F)(F)F)N[C@H]1CCCCN(CCCCNC2=O)C1 [Compound 6] | 0.6 | > 1000 | Good | 179 | 272 | 344 | 403 |  |  |  |  | 
CN1CCCCN2CCC[C@@H](C2)Nc2ncc(C(F)(F)F)c(n2)-c2c[nH]c3c(P(C)(C)=O)c(ccc23)C1=O [Formate of compound 1] | 0.3 | 253 |  |  |  |  |  | Good | 179 | 273 | 178 | 105
